In US20160228575A1, “NARINGENIN COMPLEXES AND METHODS OF USE THEREOF” (THE GENERAL HOSPITAL CORPORATION, priority 2008, published 2016):
≈ marks a conversion by molar mass, not a printed value. Entries after “also recorded” stand apart in the source; their conditions may differ.

Columns and labels:
[1] = test system: HCV (JFH-1) secreted by infected Huh-7.5.1 cells; experiment: HCV secretion by JFH-1 infected Huh-7.5.1 cells (HCV core antigen ELISA, HCV positive strand RNA qPCR); type: cell-based, Hepatitis C virus
Description: (§1) The Huh-7.5.1 human hepatoma cell line and a plasmid containing the JFH-1 genome were kindly provided by Dr. Chisari (Scripps Research Institute, CA) and Dr. Wakita (National Institute of Infectious Diseases, Tokyo) respectively. Huh-7.5.1 cells were cultured in DMEM medium supplemented with 10% FBS, 200 units/ml penicillin and […] streptomycin in a 5% CO2-humidified incubator at 37° C. In vitro transcribed genomic JFH-1 RNA was delivered to cells by liposome-mediated transfection as described by Zhong et al. (2005)(8). Infected Huh-7.5.1 cells were passaged every 3 days and used at passage <15. The presence of HCV in these cells and corresponding supernatants were determined by quantitative Polymerase Chain Reaction (qPCR) and immunofluorescence staining. Primary human hepatocytes were purchased from BD Biosciences (San Jose, Calif.) cultured on a collagen-coated 12 well plate in C+H culture media composed of DMEM supplemented with 10% heat-inactivated FBS, 200 U/mL penicillin/streptomycin, 7.5 μg/mL hydrocortisone, 20 ng/mL EGF, 14 ng/mL glucagons and 0.5 U/mL insulin. The media was supplemented with 2% DMSO for long-term culture of the primary cells.
(§2) HCV-infected Huh-7.5.1 cells were plated on a 6-well plate at a density of 1×10^5 cells/cm^2 and cultured overnight in standard medium. Prior to the beginning of the experiment, the cells were washed 3 times with PBS and cultured with DMEM containing 5% lipoprotein-free FBS. Oleate, Insulin, Naringenin, and Brefeldin A were added at this time as described in the text. Following 24 hours of incubation, the plate was gently agitated to release mechanically bound particles, the media was collected, filtered to remove cellular debris, and stored at −80° C. for further analysis. The attached cells were washed 3 times with PBS, harvested, pelleted and stored at −80° C. for further analysis.
Huh-7.5.1 secreted HCV core antigen was detected in the media using Wako Chemicals (Cambridge, Mass.) ORTHO HCV antigen ELISA kit. Media was used as is, and the assay was carried out according to manufacturer's directions.
(§3) Virus samples collected in each experiment were filtered with a 0.45 μm filter and a volume of 100 μL for each sample was heated at 95° C. for 45 min. The reverse transcription reaction step was performed on a Mastercycler epgrdientS (Eppendorf) instrument using Omniscript and Sensiscript RT Kits (Qiagen). Real time PCR was performed on a Light Cycler LC-24 (Idaho Technology), using SuperScript™ III Platinum® CellsDirect Two-Step qRT-PCR Kits (Invitrogen) for quantitative PCR. For reverse transcription step, 2 μL of sample without RNA extraction were used. For real time PCR, 1 μL of the reverse transcription reactions was used. All reactions were performed according to the manufacturer's instructions using the primers detailed in Table 1.
However, this experiment was carried out on cells continuously producing the virus. Long-term treatment could potentially have a greater effect. […] This treatment is compared to the current standard-of-care, 1000 i.u. of Interferon α (IFNα). Both treatments lowered HCV RNA to a similar level, 96±5% and 93±5% respectively.

[2] = test system: HCV (JFH-1) infection of naïve Huh7.5.1 cells; experiment: HCV infectivity of cell culture supernatant on naïve Huh7.5.1 cells; type: cell-based, Hepatitis C virus; details: Hepatitis C virus, Huh-7.5.1; supernatant after 24 hours stimulation; naringenin 200 μM, brefeldin A 2.5 μg/ml
Description: The infectivity of the secreted HCV particles was measured as previously described (8). Naïve Huh7.5.1 cells were grown to 80% confluence and exposed to cell culture supernatants diluted 10-fold in culture media. Following 1 hour incubation at 37° C., the media was replaced, and the cells were cultured for 3 additional days. Levels of HCV infection were determined by immunofluorescence staining for HCV core protein. The viral titer is expressed as focus forming units per milliliter of supernatant (ffu/ml).

ApoB = ApoB secretion by primary human hepatocytes (human ApoB ELISA); type: cell-based; details: 200 μM naringenin, 24 hours
Description: as §1, with “The media was supplemented with 2% DMSO for long-term culture of the primary cells.” left out
Huh-7.5.1 and primary human hepatocytes secreted ApoB was detected in the media using ALerCHEK, Inc (Portland, Me.) total human ApoB ELISA kit. […]
To assess the potential of naringenin-based treatment, we measured ApoB secretion in primary human hepatocytes following 24 hours stimulation with naringenin. […]

ACAT2 = ACAT2 transcription by qPCR in infected Huh7.5.1 cells; type: cell-based, human; details: naringenin 24 hours, infected Huh-7.5.1 cells
LXRα = LXRα transcription in infected Huh7.5.1 cells; type: cell-based, human; details: short term 24 hours stimulation of Huh7.5.1 cells
Description: as §3
PPARα and LXRα are ligand-activated transcription factors which control much of the fasted-to-fed transition and were previously shown to be important in the development of inflammation and insulin resistance. […] Following a short term 24 hours stimulation of Huh7.5.1 cells PPARα transcription increased by 86%, while LXRα was decreased by 25%. PPARα is the target of fibrates and plays a major role in the downregulation of inflammation, increasing sensitivity to insulin, and modulating dyslipidemia.

MTP = MTP mRNA level by qPCR in infected Huh7.5.1 cells; type: cell-based, human; details: naringenin 24 hours
[3] = test system: HCV (JFH-1) in Huh-7.5.1 cells; experiment: Intracellular HCV RNA and core protein in infected Huh-7.5.1 cells; type: cell-based, Hepatitis C virus
Description: as §2, §3
Huh-7.5.1 cells were washed 3 times with PBS and fixed in 4% EM-grade paraformaldehyde for 10 minutes at room temperature. Slides were then washed with PBS and incubated in 100 mmol/L glycine for 15 minutes to saturate reactive groups. Samples were permeabilized for 15 minutes with 0.1% Triton X-100, blocked for 30 minutes with 1% bovine serum albumin and 5% donkey serum at room temperature, and stained with primary antibodies overnight at 4° C. After additional washes with PBS, samples were stained with fluorescently tagged secondary antibodies for 45 minutes at room temperature.

[4] = test system: primary human hepatocytes
[5] = 400 mg/day oral, hypercholesterolemic patients; cited from earlier work
physchem = details: 37 °C, water, thermodynamic from solid, naringenin solubility in water
[6] = 24 hours, brefeldin A 2.5 μg/ml

O=C1C[C@@H](c2ccc(O)cc2)Oc2cc(O)cc(O)c21 [naringenin]
effective dose of naringenin in cell culture [1]: 0.20 mM
HCV core protein secretion (in words) [1, 6]: inhibits
HCV positive strand RNA secretion (in words) [1, 6]: inhibits
inhibition at 200 µM ([1]; Hepatitis C virus, 200 μM naringenin, short-term (24 hrs), infected Huh-7.5.1 cells): 80%
inhibition of HCV (RNA) secretion, long-term treatment ([1]; long-term daily treatment of infected Huh7.5.1 cells, naringenin 200 μM, IFNα 1000 i.u.): 96±5%
inhibition at 200 µM [2]: 79%
decrease in ApoB secretion (ApoB): 60%±7%
reduction of ACAT2 transcription (ACAT2): 55%±7%
decrease of LXRα transcription (LXRα): 25%
MTP mRNA level (MTP): remained unchanged
intracellular HCV core protein expression ([3]; 24 hours stimulation): remained unchanged
intracellular levels of HCV (positive strand) RNA ([3]; 24 hours stimulation): remains unchanged
HCV replication (intracellular HCV RNA), long-term treatment ([3]; long-term treatment, naringenin 200 μM, IFNα 1000 i.u.): didn't appear to effect; also recorded: remained unchanged
concentration up to which naringenin is non-toxic to freshly isolated human hepatocytes ([4]; 24 hours exposure): greater than 1000 μM
naringenin concentration above which human hepatocyte viability dropped significantly ([4]; 24 hours exposure): greater than 1000 μl
human hepatocyte viability ([4]; human, 24 h, 200 μM): 81%±3%
lowering of LDL levels [5]: 17%
solubility (physchem): 40 µM (≈ 10.9 µg/mL)
